Assay results reported in ChEMBL document CHEMBL1201862, “PubChem BioAssay data set” (2004).
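In this assay, cells in 96-well plates receive the compound at five concentrations for 48 hours. Endpoints are linearly interpolated between the surrounding concentrations. Abbreviation: GI50, concentration required for 50% inhibition of growth.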 Calls of active or inactive are those of the source. Cut-off read from the data, not from the text of the source: active = GI50 up to about 1.1 µM and inactive = higher.

Columns and labels:
Assay in all cases: DTP human tumour cell line panel, 48 h
UACC-62 = tested on: UACC-62
MCF7 = tested on: MCF7
HCT-15 = tested on: HCT-15
UACC-257 = tested on: UACC-257
TK-10 = tested on: TK-10
HT-29 = tested on: HT-29
OVCAR-5 = tested on: OVCAR-5
SK-MEL-2 = tested on: SK-MEL-2
A498 = tested on: A498
LOX IMVI = tested on: LOX IMVI
Hs-578T = tested on: Hs-578T
HOP-92 = tested on: HOP-92
PC-3 = tested on: PC-3
SNB-19 = tested on: SNB-19
OVCAR-3 = tested on: OVCAR-3
HCC 2998 = tested on: HCC 2998
SN12C = tested on: SN12C
SK-OV-3 = tested on: SK-OV-3
HOP-62 = tested on: HOP-62
786-0 = tested on: 786-0
ACHN = tested on: ACHN
SR = tested on: SR
NCI-H522 = tested on: NCI-H522
K562 = tested on: K562
CAKI-1 = tested on: CAKI-1
EKVX = tested on: EKVX
MOLT-4 = tested on: MOLT-4
DU-145 = tested on: DU-145
SF-268 = tested on: SF-268
U-251 = tested on: U-251
NCI/ADR-RES = tested on: NCI/ADR-RES
M14 = tested on: M14
IGROV-1 = tested on: IGROV-1
UO-31 = tested on: UO-31
BT-549 = tested on: BT-549
SK-MEL-5 = tested on: SK-MEL-5
RPMI-8226 = tested on: RPMI-8226
OVCAR-8 = tested on: OVCAR-8
HL-60 = tested on: HL-60
SW-620 = tested on: SW-620
NCI-H460 = tested on: NCI-H460
MDA-MB-435 = tested on: MDA-MB-435
SF-295 = tested on: SF-295
COLO 205 = tested on: COLO 205
MDA-N = tested on: MDA-N
Malme-3M = tested on: Malme-3M
SK-MEL-28 = tested on: SK-MEL-28
KM12 = tested on: KM12
MDA-MB-231 = tested on: MDA-MB-231
OVCAR-4 = tested on: OVCAR-4
NCI-H23 = tested on: NCI-H23
CCRF-CEM = tested on: CCRF-CEM
A549 = tested on: A549
T47D = tested on: T47D
SNB-75 = tested on: SNB-75
HCT-116 = tested on: HCT-116
SF-539 = tested on: SF-539
NCI-H226 = tested on: NCI-H226
RXF 393 = tested on: RXF 393

Cc1cc(C)nc(NS(=O)(=O)c2ccc(Nc3c4ccccc4nc4c(C(=O)NCCCN(CCO)CCO)cccc34)cc2)n1
GI50 (UACC-62): 14 µM (inactive)
GI50 (MCF7): 5.89 µM (inactive)
GI50 (HCT-15): 49.2 µM
GI50 (UACC-257): > 100 µM (inactive)
GI50 (TK-10): > 100 µM (inactive)
GI50 (HT-29): 12.9 µM (inactive)
GI50 (OVCAR-5): 26.4 µM (inactive)
GI50 (SK-MEL-2): 14.2 µM (inactive)
GI50 (A498): 54.3 µM (inactive)
GI50 (LOX IMVI): 10.3 µM (inactive)
GI50 (Hs-578T): 6.67 µM (inactive)
GI50 (HOP-92): 5.18 µM (inactive)
GI50 (PC-3): 14.9 µM (inactive)
GI50 (SNB-19): 9.29 µM (inactive)
GI50 (OVCAR-3): 30.1 µM (inactive)
GI50 (HCC 2998): 16.7 µM (inactive)
GI50 (SN12C): 8.22 µM (inactive)
GI50 (SK-OV-3): 50.1 µM (inactive)
GI50 (HOP-62): 17.1 µM (inactive)
GI50 (786-0): > 10 µM (inactive)
GI50 (ACHN): 22.9 µM (inactive)
GI50 (SR): 9.75 µM (inactive)
GI50 (NCI-H522): 10.9 µM (inactive)
GI50 (K562): 10.6 µM (inactive)
GI50 (CAKI-1): 56.2 µM (inactive)
GI50 (EKVX): 36.6 µM (inactive)
GI50 (MOLT-4): 3.33 µM (inactive)
GI50 (DU-145): 41.6 µM (inactive)
GI50 (SF-268): 16.9 µM (inactive)
GI50 (U-251): 13.9 µM (inactive)
GI50 (NCI/ADR-RES): > 100 µM (inactive)
GI50 (M14): 31.8 µM (inactive)
GI50 (IGROV-1): 15.5 µM (inactive)
GI50 (UO-31): 42 µM (inactive)
GI50 (BT-549): 11.6 µM (inactive)
GI50 (SK-MEL-5): 14.8 µM (inactive)
GI50 (RPMI-8226): 9.38 µM (inactive)
GI50 (OVCAR-8): 17.3 µM (inactive)
GI50 (HL-60): 11.5 µM (inactive)
GI50 (SW-620): 8.36 µM (inactive)
GI50 (NCI-H460): 7.48 µM (inactive)
GI50 (MDA-MB-435): 16 µM (inactive)
GI50 (SF-295): 27.4 µM (inactive)
GI50 (COLO 205): 14 µM (inactive)
GI50 (MDA-N): 17.7 µM (inactive)
GI50 (Malme-3M): 15.4 µM (inactive)
GI50 (SK-MEL-28): 14.2 µM (inactive)
GI50 (KM12): 12.6 µM (inactive)
GI50 (MDA-MB-231): 27.4 µM (inactive)
GI50 (OVCAR-4): 16.9 µM (inactive)
GI50 (NCI-H23): 29.4 µM (inactive)
GI50 (CCRF-CEM): 7.66 µM (inactive)
GI50 (A549): 26.4 µM (inactive)
GI50 (T47D): 22.5 µM (inactive)
GI50 (SNB-75): 3.35 µM (inactive)

CCOC(=O)/C=C(/C(=O)OCC)n1ccc(N)nc1=O
GI50 (UACC-62): > 100 µM (inactive)
GI50 (MCF7): > 100 µM (inactive)
GI50 (HCT-15): > 100 µM
GI50 (UACC-257): > 100 µM (inactive)
GI50 (TK-10): > 100 µM (inactive)
GI50 (HT-29): 62.1 µM (inactive)
GI50 (OVCAR-5): 47.9 µM (inactive)
GI50 (SK-MEL-2): > 100 µM (inactive)
GI50 (HCT-116): > 100 µM (inactive)
GI50 (SF-539): > 100 µM (inactive)
GI50 (LOX IMVI): 97.7 µM (inactive)
GI50 (Hs-578T): > 100 µM (inactive)
GI50 (HOP-92): 53.3 µM (inactive)
GI50 (PC-3): > 100 µM (inactive)
GI50 (SNB-19): > 100 µM (inactive)
GI50 (OVCAR-3): > 100 µM (inactive)
GI50 (HCC 2998): > 100 µM (inactive)
GI50 (SN12C): > 100 µM (inactive)
GI50 (SK-OV-3): > 100 µM (inactive)
GI50 (HOP-62): > 100 µM (inactive)
GI50 (786-0): > 100 µM (inactive)
GI50 (ACHN): > 100 µM (inactive)
GI50 (SR): 89.1 µM (inactive)
GI50 (NCI-H522): 23.6 µM (inactive)
GI50 (K562): > 100 µM (inactive)
GI50 (CAKI-1): 37 µM (inactive)
GI50 (EKVX): 84.9 µM (inactive)
GI50 (MOLT-4): 92 µM (inactive)
GI50 (DU-145): > 100 µM (inactive)
GI50 (SF-268): > 100 µM (inactive)
GI50 (U-251): > 100 µM (inactive)
GI50 (NCI/ADR-RES): > 100 µM (inactive)
GI50 (M14): > 100 µM (inactive)
GI50 (IGROV-1): > 100 µM (inactive)
GI50 (UO-31): > 100 µM (inactive)
GI50 (BT-549): 61.4 µM (inactive)
GI50 (SK-MEL-5): > 100 µM (inactive)
GI50 (RPMI-8226): > 100 µM (inactive)
GI50 (OVCAR-8): > 100 µM (inactive)
GI50 (HL-60): 70.6 µM (inactive)
GI50 (SW-620): 72.3 µM (inactive)
GI50 (NCI-H460): > 100 µM (inactive)
GI50 (MDA-MB-435): > 100 µM (inactive)
GI50 (SF-295): > 100 µM (inactive)
GI50 (COLO 205): 66.1 µM (inactive)
GI50 (MDA-N): > 100 µM (inactive)
GI50 (Malme-3M): 44.6 µM (inactive)
GI50 (SK-MEL-28): > 100 µM (inactive)
GI50 (NCI-H226): > 100 µM (inactive)
GI50 (KM12): > 100 µM (inactive)
GI50 (MDA-MB-231): > 100 µM (inactive)
GI50 (OVCAR-4): 56 µM (inactive)
GI50 (NCI-H23): > 100 µM (inactive)
GI50 (CCRF-CEM): 25.5 µM (inactive)
GI50 (A549): > 100 µM (inactive)
GI50 (T47D): > 100 µM (inactive)
GI50 (SNB-75): 95.1 µM (inactive)

CCOC1NC(=O)c2ccccc21 (stereo not drawn)
GI50 (UACC-62): > 100 µM (inactive)
GI50 (MCF7): > 100 µM (inactive)
GI50 (HCT-15): > 100 µM
GI50 (UACC-257): > 100 µM (inactive)
GI50 (TK-10): > 100 µM (inactive)
GI50 (HT-29): > 100 µM (inactive)
GI50 (OVCAR-5): > 100 µM (inactive)
GI50 (HCT-116): > 100 µM (inactive)
GI50 (SF-539): > 100 µM (inactive)
GI50 (LOX IMVI): > 100 µM (inactive)
GI50 (Hs-578T): > 100 µM (inactive)
GI50 (HOP-92): > 100 µM (inactive)
GI50 (PC-3): > 100 µM (inactive)
GI50 (SNB-19): > 100 µM (inactive)
GI50 (OVCAR-3): > 100 µM (inactive)
GI50 (HCC 2998): > 100 µM (inactive)
GI50 (SN12C): > 100 µM (inactive)
GI50 (SK-OV-3): > 100 µM (inactive)
GI50 (HOP-62): > 100 µM (inactive)
GI50 (786-0): > 100 µM (inactive)
GI50 (ACHN): > 100 µM (inactive)
GI50 (SR): > 100 µM (inactive)
GI50 (NCI-H522): > 100 µM (inactive)
GI50 (K562): > 100 µM (inactive)
GI50 (EKVX): > 100 µM (inactive)
GI50 (MOLT-4): > 100 µM (inactive)
GI50 (DU-145): > 100 µM (inactive)
GI50 (SF-268): > 100 µM (inactive)
GI50 (U-251): > 100 µM (inactive)
GI50 (NCI/ADR-RES): > 100 µM (inactive)
GI50 (M14): > 100 µM (inactive)
GI50 (IGROV-1): > 100 µM (inactive)
GI50 (UO-31): > 100 µM (inactive)
GI50 (BT-549): > 100 µM (inactive)
GI50 (SK-MEL-5): > 100 µM (inactive)
GI50 (RPMI-8226): > 100 µM (inactive)
GI50 (OVCAR-8): > 100 µM (inactive)
GI50 (HL-60): > 100 µM (inactive)
GI50 (SW-620): > 100 µM (inactive)
GI50 (NCI-H460): > 100 µM (inactive)
GI50 (MDA-MB-435): > 100 µM (inactive)
GI50 (RXF 393): > 100 µM (inactive)
GI50 (SF-295): > 100 µM (inactive)
GI50 (COLO 205): > 100 µM (inactive)
GI50 (MDA-N): > 100 µM (inactive)
GI50 (Malme-3M): > 100 µM (inactive)
GI50 (SK-MEL-28): > 100 µM (inactive)
GI50 (NCI-H226): > 100 µM (inactive)
GI50 (KM12): > 100 µM (inactive)
GI50 (MDA-MB-231): > 100 µM (inactive)
GI50 (OVCAR-4): > 100 µM (inactive)
GI50 (NCI-H23): > 100 µM (inactive)
GI50 (CCRF-CEM): > 100 µM (inactive)
GI50 (A549): > 100 µM (inactive)
GI50 (T47D): > 100 µM (inactive)
GI50 (SNB-75): > 100 µM (inactive)
